Measured values published in ChEMBL document CHEMBL5385919, “A Survey of Recently Discovered Naturally Occurring Organohalogen Compounds” (J Nat Prod, 2024).
In brackets after ≈: the same amount, converted by molar mass.

Assays:
Staphylococcus aureus [1] = assay: Antibacterial activity against methicillin resistant Staphylococcus aureus assessed as reduction in bacterial growth; assay type: functional, organism-based
RAW264.7 = assay: Antiinflammatory activity in mouse RAW264.7 cells assessed as inhibition of LPS-induced NO production pretreated with compound for 1 hr followed by LPS-induction and measured after 48 hrs by microplate reader analysis; assay type: functional, cell-based
[2] = target: E3 ubiquitin-protein ligase CBL-B (Homo sapiens, UniProt Q13191); assay: Inhibition of recombinant Cbl-b (unknown origin) in presence of ATP incubated for 60 mins by ELISA analysis
Staphylococcus aureus [3] = assay: Antibacterial activity against Staphylococcus aureus assessed as reduction in bacterial growth; assay type: functional
Bacillus subtilis [4] = assay: Antibacterial activity against Bacillus subtilis assessed as reduction in bacterial growth; assay type: functional
Plasmodium falciparum = assay: Antiplasmodial activity against Plasmodium falciparum K1 assessed as reduction in parasite growth; assay type: functional, organism-based
Vibrio harveyi [5] = assay: Antimicrobial activity against Vibrio harveyi assessed as bacterial growth inhibition incubated for 12 hrs by serial dilution analysis; assay type: functional
HCT-8 = assay: Cytotoxicity against human HCT-8 cells assessed as inhibition of cell growth incubated for 48 hrs by MTT assay; assay type: functional, cell-based; settings: HCT-8, 48 h
Nannizzia gypsea = assay: Antifungal activity against Microsporum gypseum assessed as reduction in fungal growth; assay type: functional
Vibrio harveyi [6] = assay: Antimicrobial activity against Vibrio harveyi assessed as bacterial growth inhibition; assay type: functional
Prorocentrum minimum = assay: Antimicrobial activity against Prorocentrum minimum assessed as […] growth inhibition; assay type: functional
A549 = assay: Cytotoxicity against human A549 cells assessed as inhibition of cell growth incubated for 48 hrs by MTT assay; assay type: functional, cell-based; settings: A549, 48 h
MDA-MB-231 = assay: Growth inhibition of human MDA-MB-231 cells assessed inhibition of cell growth; assay type: functional
[7] = Inhibition of neuronal excitability in mouse Primary neocortical neuron assessed as reduction in 4-AP-induced SCO frequency measured for 1 hr by FLIPR assay; assay type: functional, cell-based
[8] = Inhibition of neuronal excitability in mouse Primary neocortical neuron assessed as reduction in 4-AP-induced SCO amplitude measured for 1 hr by FLIPR assay; assay type: functional, cell-based
Escherichia coli = assay: Antibacterial activity against Escherichia coli assessed as reduction in bacterial growth; assay type: functional
Candida albicans = assay: Antifungal activity against Candida albicans assessed as reduction in […] growth; assay type: functional
P388 = assay: Cytotoxicity against mouse P388 cells assessed as inhibition of cell growth; assay type: functional, cell-based
Kocuria rhizophila = assay: Antibacterial activity against Kocuria rhizophila ATCC9341 assessed as reduction in bacterial growth; assay type: functional
Staphylococcus aureus [9] = assay: Antibacterial activity against Staphylococcus aureus FDA 209P JC-1 assessed as reduction in bacterial growth; assay type: functional
Bacillus subtilis [10] = assay: Antibacterial activity against Bacillus subtilis PCI219 assessed as reduction in bacterial growth; assay type: functional
Bacillus subtilis [11] = assay: Antibacterial activity against Bacillus subtilis ATCC 6633 assessed as reduction in bacterial growth; assay type: functional
HeLa = assay: Cytotoxicity against human HeLa cells assessed as inhibition of cell growth; assay type: functional, cell-based
HepG2 = assay: Cytotoxicity against human HepG2 cells assessed as inhibition of cell growth; assay type: functional, cell-based
Aspergillus sydowii = assay: Antifungal activity against Aspergillus sydowii SCSIO 00305 assessed as inhibition of fungal growth; assay type: functional, organism-based
[12] = system: Trypanosoma brucei rhodesiense; assay: Antitrypanosomal activity against Trypanosoma brucei rhodesiense; assay type: functional, organism-based

Sequence of E3 ubiquitin-protein ligase CBL-B (Q13191 whole entry): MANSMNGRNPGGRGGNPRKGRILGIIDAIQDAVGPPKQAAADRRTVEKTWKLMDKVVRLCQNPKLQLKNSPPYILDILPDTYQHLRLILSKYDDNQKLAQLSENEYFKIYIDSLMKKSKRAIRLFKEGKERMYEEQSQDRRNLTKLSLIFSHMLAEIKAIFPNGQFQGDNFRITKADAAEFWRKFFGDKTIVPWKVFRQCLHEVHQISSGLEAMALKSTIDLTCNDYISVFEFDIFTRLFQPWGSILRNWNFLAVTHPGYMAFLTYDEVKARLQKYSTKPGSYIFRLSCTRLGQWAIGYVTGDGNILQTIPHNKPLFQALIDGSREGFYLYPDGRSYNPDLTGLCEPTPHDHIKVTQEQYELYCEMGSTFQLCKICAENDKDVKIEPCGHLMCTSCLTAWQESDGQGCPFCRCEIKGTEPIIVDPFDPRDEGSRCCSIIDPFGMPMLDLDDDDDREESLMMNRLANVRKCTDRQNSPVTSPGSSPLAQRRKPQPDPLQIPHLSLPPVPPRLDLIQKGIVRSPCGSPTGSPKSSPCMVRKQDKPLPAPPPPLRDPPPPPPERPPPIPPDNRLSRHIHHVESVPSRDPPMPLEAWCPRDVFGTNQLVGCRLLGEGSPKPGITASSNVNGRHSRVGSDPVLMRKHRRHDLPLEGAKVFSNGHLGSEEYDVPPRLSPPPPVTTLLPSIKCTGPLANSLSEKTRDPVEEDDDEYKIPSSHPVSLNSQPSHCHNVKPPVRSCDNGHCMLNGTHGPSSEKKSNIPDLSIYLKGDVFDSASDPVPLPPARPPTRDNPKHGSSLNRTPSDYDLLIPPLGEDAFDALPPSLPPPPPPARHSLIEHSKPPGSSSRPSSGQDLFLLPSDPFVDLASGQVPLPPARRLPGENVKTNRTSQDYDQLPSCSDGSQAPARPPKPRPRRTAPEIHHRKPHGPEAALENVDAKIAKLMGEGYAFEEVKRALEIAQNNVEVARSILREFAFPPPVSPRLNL

SMILES: Cc1cc(O)c2c3c(c(O)cc(OC[C@@H](O)C(C)(C)Cl)c13)C(=O)C2=O
- MIC (Staphylococcus aureus [1]): 12.5 µM

SMILES: C#C/C=C\CC(Br)[C@@H]1C[C@@H](OC(C)=O)[C@H](CCCCCC)O1 (stereo partly specified)
- IC50 (RAW264.7): 3.69 µM

SMILES: Cn1cc(Br)cc1C(=O)NC[C@@H]1[C@@H](CNC(=O)c2ccc(Br)[nH]2)Cc2nc(N)[nH]c2[C@H]1c1c[nH]c(N)n1
- IC50 [2]: 33 µM

SMILES: CC[C@H](C)[C@H]1O[C@@H](CC(C)=O)O[C@@]1(C)/C=C/C1=CC2=C(Cl)C(=O)[C@](C)(O)[C@H](OC(C)=O)[C@H]2CO1
- MIC (Staphylococcus aureus [1]): 12.5 µg/mL

SMILES: COc1c(Br)cc(C/C(=N/O)C(=O)NC[C@@H](O)COc2c(Br)cc([C@H]3CNC(=O)O3)cc2Br)c(O)c1Br
- MIC (Staphylococcus aureus [3]): 5.2 µM

SMILES: Cc1cc(O)cc2c1[C@@H]1O[C@@](C)(Cc3cc4c(c(O)c31)C(=O)c1c(O)cc(O)c(Cl)c1C4(C)C)O2
- MIC (Staphylococcus aureus [3]): 0.8 µg/mL
- MIC (Bacillus subtilis [4]): 0.4 µg/mL
- IC50 (Plasmodium falciparum): 4.49 µM

SMILES: O=C(N[C@H](CO)[C@H](O)c1ccc([N+](=O)[O-])cc1)C(Cl)Cl [CHLORAMPHENICOL]
- MIC (Vibrio harveyi [5]): 2 µg/mL (≈ 6.19 µM)

SMILES: C=C(COC(=O)Cc1cc(O)c(O)c(Cl)c1)[C@@]12O[C@@H]1[C@@]1(C)C(=CC2=O)CC[C@@H](O)[C@@H]1C
- IC50 (HCT-8): 5.4 µM

SMILES: C=C(C)[C@@H](O)CC/C(C)=C1\CC[C@](C)(Cl)[C@@H](Br)C1
- MIC (Staphylococcus aureus [3]): 26.8 µg/mL
- MIC (Nannizzia gypsea): 4 µg/mL (≈ 11.9 µM)

SMILES: COC(=O)/C=C/C(=O)N[C@H](Cc1ccc(O)c(Cl)c1)C(=O)OC
- MIC (Vibrio harveyi [6]): 16 µg/mL (≈ 46.8 µM)

SMILES: COc1cc(OC)c2c(O)c3c(=O)cc(C)oc3c(-c3c(OC)cc4c(I)c(O)c5c(=O)cc(C)oc5c4c3OC)c2c1
- MIC (Vibrio harveyi [5]): 8 µg/mL (≈ 11.5 µM)
- MIC (Prorocentrum minimum): 0.61 µg/mL (≈ 0.876 µM)

SMILES: CC(C)=C1C[C@@]2(COC(=O)Cc3cc(O)c(O)c(Cl)c3)C(=CC1=O)CC[C@@H](O)[C@@H]2C
- IC50 (A549): 3.2 µM

SMILES: CCCC[C@H]1CCC[C@@H](Cl)C[C@@H](OC)c2cc(O)c(c(O)c2)[C@@H](CC)CCC[C@@H](Cl)C[C@@H](OC)c2cc(O)c1c(O)c2
- GI50 (MDA-MB-231): 0.72 µM

SMILES: CC(C)(O)C(=O)OC[C@](C)(O)[C@H]1OC2=CC[C@@]3(C)[C@@](O)(CC[C@H]4Cc5c([nH]c6cc(Cl)ccc56)[C@@]43C)C2=CC1=O
- EC50 [7]: 4.77 µM
- EC50 [8]: 5.62 µM

SMILES: O=C1C=Cc2c3c4c(c(O)ccc4c4ccc(O)c1c24)[C@@H](O)[C@H](Cl)[C@@H]3O
- MIC (Escherichia coli): 6.25 µM (≈ 2.3 µg/mL)

SMILES: CCCC[C@H]1CCC[C@@H](Cl)CCc2cc(O)c(c(O)c2)[C@@H](CCCC)CCC[C@@H](Cl)C[C@@H](OC)c2cc(O)c1c(O)c2
- GI50 (MDA-MB-231): 0.72 µM

SMILES: O=C1NC(=O)c2c1c1c3cc(Cl)ccc3[nH]c1c1[nH]c3ccc(Cl)cc3c21
- MIC (Candida albicans): 1 µg/mL (≈ 2.54 µM)

SMILES: Cc1c(O)cc2c(c1O)C(=O)C1=C(OC(C)(C)[C@H](Cl)C1)C2=O
- IC50 (P388): 9.8 µM
- MIC (Kocuria rhizophila): 6.25 µg/mL (≈ 19.4 µM)
- MIC (Staphylococcus aureus [9]): 6.25 µg/mL (≈ 19.4 µM)
- MIC (Bacillus subtilis [10]): 6.25 µg/mL (≈ 19.4 µM)

SMILES: CO[C@H]1C[C@@H](O)[C@H](OC)c2oc3c4c5c(c(O)c3c(=O)c21)-c1c(cc2c(Cl)c(C)n(N)c(=O)c2c1O)C[C@H]5OCO4
- MIC (Bacillus subtilis [11]): 0.001 µg/mL (≈ 0.00171 µM)
- MIC (Staphylococcus aureus [9]): 0.001 µg/mL (≈ 0.00171 µM)
- IC50 (HeLa): 0.04 nM

SMILES: CC(C)c1cc(=O)c2c(cc(O)c3c(=O)c4c(O)c(Br)ccc4c(=O)c32)c1=O
- IC50 (HepG2): 9.3 µM
- IC50 (Staphylococcus aureus [1]): 0.098 µg/mL (≈ 0.222 µM)

SMILES: C[C@]12NC(=N)N[C@@]1(O)c1nc(-c3c[nH]c4ccccc34)cnc1-c1c2[nH]c2cc(Br)ccc12
- MIC (Escherichia coli): 37.5 µM (≈ 18.8 µg/mL)
- MIC (Bacillus subtilis [4]): 18.5 µM

SMILES: COc1cc2oc3cc4c(c(OC)c3c(=O)c2c(OC)c1Cl)[C@@H]1C=CO[C@@H]1O4
- IC50 (Aspergillus sydowii): 2.9 µM

SMILES: C=C(COC(=O)Cc1ccc(O)c(Cl)c1)[C@@]12O[C@@H]1[C@@]1(C)C(=CC2=O)CC[C@@H](O)[C@@H]1C
- IC50 (HCT-8): 7.3 µM

SMILES: CC(=O)O[C@@H](C/C=C/Cl)[C@@H](C)C(=O)/C=C/CCNC(=O)CC/C=C/C(C)(C)C
- IC50 [12]: 1.2 µM
